{"source": "patent US9393192B2", "about": "“Methods and dosage forms for controlled delivery of paliperidone and risperidone” (ALZA CORPORATION, priority 2002, dated 2016)", "key": {"[1]": {"details": "cited from earlier work"}, "[2]": {"test": "stability testing / degradation of paliperidone", "type": "physicochemical", "details": "stress conditions, stability testing (FIGS. 7, 8, 9A, 9B)", "source_text": "FIGS. 8, 9A and 9B illustrate the increased stability of paliperidone in the dosage forms incorporating the protective subcoat compared to dosage forms not incorporating the protective subcoat."}, "[3]": {"details": "in vivo; cited from earlier work"}}}
{"smiles": "Cc1nc2n(c(=O)c1CCN1CCC(c3noc4cc(F)ccc34)CC1)CCCC2O", "note": "(stereo not shown) [paliperidone]", "values": [{"measurement": "solubility in water", "setting": "[1]", "value": "practically insoluble in water"}, {"measurement": "degradation / stability", "setting": "[2]", "value": "degrades into notable amounts of impurities"}, {"measurement": "half-life", "setting": "[3]", "value": "about one"}]}
{"smiles": "Cc1nc2n(c(=O)c1CCN1CCC(c3noc4cc(F)ccc34)CC1)CCCC2", "note": "[risperidone]", "values": [{"measurement": "solubility in water", "setting": "[1]", "value": "practically insoluble in water"}]}
